Molecular target: T1, IKKβ (Homo sapiens, UniProt O14920)
T1 sequence (O14920 1-756): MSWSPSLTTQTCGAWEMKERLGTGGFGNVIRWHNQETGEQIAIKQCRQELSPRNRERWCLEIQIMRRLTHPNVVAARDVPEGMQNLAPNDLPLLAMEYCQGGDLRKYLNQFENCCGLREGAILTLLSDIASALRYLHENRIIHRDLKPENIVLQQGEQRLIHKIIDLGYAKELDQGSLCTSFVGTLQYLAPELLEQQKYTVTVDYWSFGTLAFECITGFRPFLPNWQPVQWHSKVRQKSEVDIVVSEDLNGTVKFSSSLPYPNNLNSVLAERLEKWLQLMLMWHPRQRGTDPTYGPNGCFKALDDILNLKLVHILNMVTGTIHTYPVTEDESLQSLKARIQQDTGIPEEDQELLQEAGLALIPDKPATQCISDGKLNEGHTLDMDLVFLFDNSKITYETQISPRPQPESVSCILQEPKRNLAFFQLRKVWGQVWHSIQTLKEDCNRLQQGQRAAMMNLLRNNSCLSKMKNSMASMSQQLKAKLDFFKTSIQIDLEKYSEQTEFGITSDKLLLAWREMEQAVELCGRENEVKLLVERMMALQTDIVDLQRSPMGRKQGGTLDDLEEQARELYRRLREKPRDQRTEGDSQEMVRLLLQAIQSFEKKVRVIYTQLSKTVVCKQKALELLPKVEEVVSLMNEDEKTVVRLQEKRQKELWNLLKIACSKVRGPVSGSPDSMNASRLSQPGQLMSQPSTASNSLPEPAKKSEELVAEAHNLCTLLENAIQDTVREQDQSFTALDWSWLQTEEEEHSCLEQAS
Assay: SPR
Assay type: binding

## CC(C)C1=CC2=CC[C@@H]3[C@](C)(CCC[C@@]3(C)C(=O)O)[C@H]2CC1 [AA, Abietic acid]
  Kd: 32 µM
